pIC50: −log10 of the molar value.
Experiments:
[1] = system: OCI-AML3 cell line; assay: MTS assay for cell growth/viability, OCI-AML3; format: cell-based; conditions: Homo sapiens, OCI-AML-3, 96 hours, Table 2 (one study)
Experimental: (§1) MTS assay for cell growth/viability: Mitochondrial activity was measured to determine cell proliferation using an MTS assay ([…]). Metabolically active cells convert MTS tetrazolium salt into a purple formazan product that is soluble in tissue culture medium. The amount of formazan measured at 490 nm absorbance is proportional to the number of proliferating cells. MTS assays in AML cell lines were carried out with 20K cells plated per well in 96-well plates with Cpd3 or brequinar in a dose series ranging from 0.0001 to 10 μM. Triplicate wells were set up for each condition. At 96 hours, the MTS reagent was added and after approximately 4 hours the plates were read in a spectrophotometer.
(§2) Biological Activity: Cell proliferation assays were carried out using the MTS assay described herein using two AML cell lines (i.e., MOLM13 and OCI-AML3) with varied genetic backgrounds. The assays were carried out in a blinded fashion.

[2] = target: T1, h-DHODH (Homo sapiens, UniProt Q02127); assay: DHODH enzymatic assay (DCIP reduction); format: biochemical; conditions: recombinant human enzyme, 25° C., pH 8.0
T1 construct: made in house
Experimental: DHODH Enzymatic Assay: DHODH activity was determined at 25° C. following the reduction of 2,6-dichloroindophenol sodium salt (DCIP) at 600 nm (ε=18 800 M^−1 cm^−1) on a spectrophotometer. The reaction medium used contained 50 mM Tris-HCl, pH 8.0, 0.1% Triton X-100, 0.1 mM LDHO, 0.025 mM CoQ1, and 0.06 mM DCIP. The reaction was started by addition of the enzyme. The inhibitory potency of the compounds was evaluated by measuring the initial velocity of the reaction either in the absence or in the presence of the compounds at the indicated concentrations. The DHODH enzyme used was the recombinant human enzyme prepared as previously described (Helene Munier-Lehmann, et al., J. Med. Chem. 2015, 58:860-877).

[3] = system: AML cell lines (MOLM13 and OCI-AML3); assay: MTS cell proliferation assay, AML cell lines; format: cell-based; conditions: range over the two AML cell lines, one study; read-out: growth arrest in AML cell lines, IC50 range
Experimental: as §1, §2

[4] = system: MOLM13 cell line; assay: MTS assay for cell growth/viability, MOLM13; format: cell-based; conditions: Homo sapiens
Experimental: as §1, with “MTS assays in AML cell lines were carried out with 20K cells plated per well in 96-well plates with Cpd3 or brequinar in a dose series ranging from 0.0001 to 10 μM.” left out
as §2

[5] = MOLM-13, Table 3 (second study), dose range of 2 nM to 10000 nM

T1 sequence (Q02127 whole entry): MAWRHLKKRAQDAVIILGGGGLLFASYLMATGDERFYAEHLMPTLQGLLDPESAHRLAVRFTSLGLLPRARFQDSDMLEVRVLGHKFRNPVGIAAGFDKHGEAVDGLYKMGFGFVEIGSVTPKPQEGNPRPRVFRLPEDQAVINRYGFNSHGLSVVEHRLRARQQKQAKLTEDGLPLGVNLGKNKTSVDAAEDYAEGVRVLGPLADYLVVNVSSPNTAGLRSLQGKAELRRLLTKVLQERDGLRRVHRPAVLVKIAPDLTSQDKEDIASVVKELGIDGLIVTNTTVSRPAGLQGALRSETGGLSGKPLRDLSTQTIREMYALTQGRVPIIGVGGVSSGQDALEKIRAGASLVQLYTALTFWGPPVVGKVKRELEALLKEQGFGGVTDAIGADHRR

SMILES | pIC50 [1] | pIC50 [2] | pIC50 [3] | pIC50 ([4]; MOLM-13, 96 hours, Table 2 (one study)) | pIC50 [4, 5]
CCOc1ccc(-c2ccc(-c3cc(C(=O)O)c4cc(F)ccc4n3)cc2F)cc1 [Cpd1, 2-(4′-ethoxy-2-fluoro-[1,1′-biphenyl]-4-yl)-6-fluoroquinoline-4-carboxylic acid] | 7.71 | 8.61 | 7.71 to 7.84 | 7.84 | 7.89
CCOc1cccc(-c2ccc(-c3cc(C(=O)O)c4cc(F)ccc4n3)cc2F)c1 [Cpd2, 2-(3′-ethoxy-2-fluoro-[1,1′-biphenyl]-4-yl)-6-fluoroquinoline-4-carboxylic acid] | – | > 9.30 | – | – | 7.80
CCCCOc1cccc(-c2ccc(-c3cc(C(=O)O)c4cc(F)ccc4n3)cc2F)c1 [Cpd3, 2-(3′-butoxy-2-fluoro-[1,1′-biphenyl]-4-yl)-6-fluoroquinoline-4-carboxylic acid] | – | > 9.30 | – | – | 7.80
O=C(O)c1cc(-c2ccc(-c3ccccc3)c(F)c2)nc2ccc(F)cc12 [Cpd4] | – | 9.14 | – | – | 7.39
O=C(O)c1cc(-c2ccc(-c3ccccc3F)c(F)c2)nc2ccc(F)cc12 [Cpd5, 2-(2,2′-difluoro-[1,1′-biphenyl]-4-yl)-6-fluoroquinoline-4-carboxylic acid] | – | 8.78 | – | – | 7.85
CCNc1ccc(-c2ccc(-c3cc(C(=O)O)c4cc(F)ccc4n3)cc2F)cc1 [Cpd6, 2-(4′-(ethylamino)-2-fluoro-[1,1′-biphenyl]-4-yl)-6-fluoroquinoline-4-carboxylic acid] | – | 8.87 | – | – | > 8.70
CCOc1ccc(-c2cc(F)c(-c3cc(C(=O)O)c4cc(F)ccc4n3)cc2F)cc1 [Cpd7, 2-(4′-ethoxy-2,5-difluoro-[1,1′-biphenyl]-4-yl)-6-fluoroquinoline-4-carboxylic acid] | – | 8.85 | – | – | > 8.70
CCOc1cccc(-c2cc(F)c(-c3cc(C(=O)O)c4cc(F)ccc4n3)cc2F)c1 [Cpd8, 2-(3′-ethoxy-2,5-difluoro-[1,1′-biphenyl]-4-yl)-6-fluoroquinoline-4-carboxylic acid] | – | > 9.29 | – | – | > 8.70
CCOc1ccc(-c2ccc(-c3cc(C(=O)O)c4cc(F)ccc4n3)c(F)c2)cc1 [Cpd9, 2-(4′-ethoxy-3-fluoro-[1,1′-biphenyl]-4-yl)-6-fluoroquinoline-4-carboxylic acid] | – | 8.26 | – | – | –
CCOc1cccc(-c2ccc(-c3cc(C(=O)O)c4cc(F)ccc4n3)c(F)c2)c1 [Cpd10, 2-(3′-ethoxy-3-fluoro-[1,1′-biphenyl]-4-yl)-6-fluoroquinoline-4-carboxylic acid] | – | 9.15 | – | – | > 8.70
CCCCOc1cccc(-c2cc(F)c(-c3cc(C(=O)O)c4cc(F)ccc4n3)cc2F)c1 [Cpd11, 2-(3′-butoxy-2,5-difluoro-[1,1′-biphenyl]-4-yl)-6-fluoroquinoline-4-carboxylic acid] | – | > 9.29 | – | – | –
CCCCOc1cccc(-c2ccc(-c3cc(C(=O)O)c4cc(F)ccc4n3)c(F)c2)c1 [Cpd12, 2-(3′-butoxy-3-fluoro-[1,1′-biphenyl]-4-yl)-6-fluoroquinoline-4-carboxylic acid] | – | 9.15 | – | – | > 8.70
CCOc1ccc(-c2ccc(-c3cc(C(=O)O)c4cc(F)ccc4n3)cc2C)cc1 [Cpd13, 2-(4′-ethoxy-2-methyl-[1,1′-biphenyl]-4-yl)-6-fluoroquinoline-4-carboxylic acid] | – | 8.82 | – | – | > 8.70
CCOc1cccc(-c2ccc(-c3cc(C(=O)O)c4cc(F)ccc4n3)cc2C)c1 [Cpd14] | – | 8.85 | – | – | > 8.70
CCOc1ccc(-c2ccc(-c3cc(C(=O)O)c4cc(F)ccc4n3)cc2OC)cc1 [Cpd15, 2-(4′-ethoxy-2-methoxy-[1,1′-biphenyl]-4-yl)-6-fluoroquinoline-4-carboxylic acid] | – | 8.38 | – | – | > 8.70
CCOc1cccc(-c2ccc(-c3cc(C(=O)O)c4cc(F)ccc4n3)cc2OC)c1 [Cpd16, 2-(3′-ethoxy-2-methoxy-[1,1′-biphenyl]-4-yl)-6-fluoroquinoline-4-carboxylic acid] | – | 8.89 | – | – | > 8.70
CCOc1ccc(-c2cc(F)c(-c3cc(C(=O)O)c4cc(F)ccc4n3)c(F)c2)cc1 [Cpd17, 2-(4′-ethoxy-3,5-difluoro-[1,1′-biphenyl]-4-yl)-6-fluoroquinoline-4-carboxylic acid] | – | 8.21 | – | – | 7.37
CCOc1cccc(-c2cc(F)c(-c3cc(C(=O)O)c4cc(F)ccc4n3)c(F)c2)c1 [Cpd18] | – | 8.92 | – | – | > 8.70
CCOc1ccc(-c2ccc(-c3cc(C(=O)O)c4cc(F)ccc4n3)cc2Cl)cc1 [Cpd19, 2-(2-chloro-4′-ethoxy-[1,1′-biphenyl]-4-yl)-6-fluoroquinoline-4-carboxylic acid] | – | 8.96 | – | – | > 8.70
CCOc1cccc(-c2ccc(-c3cc(C(=O)O)c4cc(F)ccc4n3)cc2Cl)c1 [Cpd20, 2-(2-chloro-3′-ethoxy-[1,1′-biphenyl]-4-yl)-6-fluoroquinoline-4-carboxylic acid] | – | 9.22 | – | – | > 8.70
CCOc1ccc(-c2ccc(-c3cc(C(=O)O)c4cc(F)ccc4n3)c(C)c2)cc1 [Cpd21, 2-(4′-ethoxy-3-methyl-[1,1′-biphenyl]-4-yl)-6-fluoroquinoline-4-carboxylic acid] | – | 7.94 | – | – | 6.27
CCCCOc1cccc(-c2ccc(-c3cc(C(=O)O)c4cc(F)ccc4n3)c(C)c2)c1 [Cpd22, 2-(3′-butoxy-3-methyl-[1,1′-biphenyl]-4-yl)-6-fluoroquinoline-4-carboxylic acid] | – | > 9.29 | – | – | 7.47
CCOc1ccc(-c2ccc(-c3cc(C(=O)O)c4cc(F)ccc4n3)c(OC)c2)cc1 [Cpd23, 2-(4′-ethoxy-3-methoxy-[1,1′-biphenyl]-4-yl)-6-fluoroquinoline-4-carboxylic acid] | – | 7.80 | – | – | 6.27
CCOc1ccc(-c2ccc(-c3cc(C(=O)O)c4cc(F)ccc4n3)c(Cl)c2)cc1 [Cpd24, 2-(3-chloro-4′-ethoxy-[1,1′-biphenyl]-4-yl)-6-fluoroquinoline-4-carboxylic acid] | – | 7.65 | – | – | 6.33
CCCCOc1cccc(-c2ccc(-c3cc(C(=O)O)c4cc(F)ccc4n3)cc2C)c1 [Cpd25, 2-(3′-butoxy-2-methyl-[1,1′-biphenyl]-4-yl)-6-fluoroquinoline-4-carboxylic acid] | – | > 9.29 | – | – | > 8.70
CCCCOc1cccc(-c2ccc(-c3cc(C(=O)O)c4cc(F)ccc4n3)c(OC)c2)c1 [Cpd26, 2-(3′-butoxy-3-methoxy-[1,1′-biphenyl]-4-yl)-6-fluoroquinoline-4-carboxylic acid] | – | 9.15 | – | – | 7.96
CCCCOc1cccc(-c2ccc(-c3cc(C(=O)O)c4cc(F)ccc4n3)c(Cl)c2)c1 [Cpd27] | – | > 9.29 | – | – | 7.80

From patent US20240018108A1, “METHODS AND COMPOSITIONS FOR INHIBITION OF DIHYDROOROTATE DEHYDROGENASE” (OHIO STATE INNOVATION FOUNDATION, priority 2019, published 2024)
